One block for each compound: values may come before it.
Key:
[1] = biological target: T1, 5-hydroxytryptamine receptor 1D (Homo sapiens, UniProt P28221); test: Displacement of [3H]5-HT from human 5-hydroxytryptamine 1D receptor expressed in Chinese hamster ovary cells (CHO cells); format: cell-based
[2] = biological target: T1, 5-hydroxytryptamine receptor 1D; test: Selectivity of compound to human 5-HT1D receptor to that of human 5-HT1B receptor
[3] = biological target: T1, 5-hydroxytryptamine receptor 1D; test: Inhibition of [3H]5-HT binding to human 5-hydroxytryptamine 1D receptor expressed in CHO cells at 1 uM; format: cell-based
Rattus norvegicus [4] = organism: Rattus norvegicus; test: In vitro metabolic stability of compound after 30 min incubation in the presence of rat liver microsomes; format: functional
[5] = biological target: 5-hydroxytryptamine receptor 2A (Homo sapiens) (UniProt P28223); test: Inhibition of binding towards 5-hydroxytryptamine 2A receptor at 100 nM concentration
[6] = biological target: 5-hydroxytryptamine receptor 1B (Homo sapiens) (UniProt P28222); test: Inhibition of binding towards 5-hydroxytryptamine 1B receptor at 100 nM concentration
[7] = biological target: D(3) dopamine receptor (Homo sapiens) (UniProt P35462); test: Inhibition of binding towards dopamine 3 receptor at 100 nM concentration
[8] = biological target: D(2) dopamine receptor (Homo sapiens) (UniProt P14416); test: Inhibition of binding towards dopamine 2 receptor at 100 nM concentration
[9] = biological target: T1, 5-hydroxytryptamine receptor 1D; test: Inhibition of binding towards 5-hydroxytryptamine 1D receptor at 100 nM concentration
[10] = biological target: T2, D(4) dopamine receptor (Homo sapiens) (UniProt P21917); test: Inhibition of binding towards dopamine 4 receptor at 100 nM concentration
T2 sequence (whole entry): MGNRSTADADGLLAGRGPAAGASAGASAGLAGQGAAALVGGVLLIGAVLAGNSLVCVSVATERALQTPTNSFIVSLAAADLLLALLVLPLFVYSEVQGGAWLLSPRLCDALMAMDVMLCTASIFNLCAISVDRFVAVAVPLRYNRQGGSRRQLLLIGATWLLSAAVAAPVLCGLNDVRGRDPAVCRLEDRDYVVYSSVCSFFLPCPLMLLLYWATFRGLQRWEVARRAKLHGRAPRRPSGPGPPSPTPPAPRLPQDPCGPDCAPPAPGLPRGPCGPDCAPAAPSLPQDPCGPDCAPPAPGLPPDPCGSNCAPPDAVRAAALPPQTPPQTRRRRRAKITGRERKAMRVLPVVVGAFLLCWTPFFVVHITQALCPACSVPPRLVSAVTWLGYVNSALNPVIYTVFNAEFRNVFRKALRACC

[11] = biological target: T1, 5-hydroxytryptamine receptor 1D; test: Ability to inhibit forskolin-stimulated adenylate cyclase activity in Chinese hamster ovary (CHO) stable cell lines expressing human 5-hydroxytryptamine 1D receptor; format: functional
[12] = biological target: D(1B) dopamine receptor (Homo sapiens) (UniProt P21918); test: Inhibition of binding towards dopamine 5 receptor at 100 nM concentration
[13] = biological target: Adrenergic receptor alpha-1 (Homo sapiens) (UniProt P35348+P25100+P35368); test: Inhibition of binding towards Alpha-1 adrenergic receptor at 100 nM concentration; format: protein assay
[14] = biological target: T3, 5-hydroxytryptamine receptor 1A (Homo sapiens) (UniProt P08908); test: Inhibition of binding towards 5-hydroxytryptamine 1A receptor at 100 nM concentration
T3 sequence (whole entry): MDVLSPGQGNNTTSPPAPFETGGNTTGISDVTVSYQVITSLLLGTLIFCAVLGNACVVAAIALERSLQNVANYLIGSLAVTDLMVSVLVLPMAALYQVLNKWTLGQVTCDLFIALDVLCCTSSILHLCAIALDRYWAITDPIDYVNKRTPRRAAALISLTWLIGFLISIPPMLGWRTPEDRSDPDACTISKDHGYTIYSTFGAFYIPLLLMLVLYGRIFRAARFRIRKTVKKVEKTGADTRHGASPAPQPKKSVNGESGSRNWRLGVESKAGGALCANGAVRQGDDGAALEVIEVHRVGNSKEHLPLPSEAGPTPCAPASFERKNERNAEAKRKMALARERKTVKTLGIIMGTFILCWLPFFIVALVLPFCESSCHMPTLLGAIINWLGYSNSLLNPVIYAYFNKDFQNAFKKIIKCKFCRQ

[15] = biological target: 5-hydroxytryptamine receptor 7 (Homo sapiens) (UniProt P34969); test: Inhibition of binding towards 5-hydroxytryptamine 7 receptor at 100 nM concentration
[16] = Oral bioavailability in rat; format: ADME, organism-based; conditions: in vivo
[17] = Cmax in rat; format: ADME, organism-based; conditions: in vivo
[18] = biological target: 5-hydroxytryptamine receptor 6 (Homo sapiens) (UniProt P50406); test: Inhibition of binding towards 5-hydroxytryptamine 6 receptor at 100 nM concentration
[19] = biological target: D(1A) dopamine receptor (Homo sapiens) (UniProt P21728); test: Inhibition of binding towards dopamine 1 receptor at 100 nM concentration
[20] = Compound distribution in rat tissues was determined; format: ADME, organism-based; conditions: in vivo
[21] = Half period in rat after intravenous administration; format: ADME, organism-based; conditions: in vivo
[22] = Plasma clearance was determined in rat; format: ADME, organism-based
[23] = biological target: T4, 5-hydroxytryptamine receptor 2C (Homo sapiens) (UniProt P28335); test: Inhibition of binding towards 5-hydroxytryptamine 2C receptor at 100 nM concentration
T4 sequence (whole entry): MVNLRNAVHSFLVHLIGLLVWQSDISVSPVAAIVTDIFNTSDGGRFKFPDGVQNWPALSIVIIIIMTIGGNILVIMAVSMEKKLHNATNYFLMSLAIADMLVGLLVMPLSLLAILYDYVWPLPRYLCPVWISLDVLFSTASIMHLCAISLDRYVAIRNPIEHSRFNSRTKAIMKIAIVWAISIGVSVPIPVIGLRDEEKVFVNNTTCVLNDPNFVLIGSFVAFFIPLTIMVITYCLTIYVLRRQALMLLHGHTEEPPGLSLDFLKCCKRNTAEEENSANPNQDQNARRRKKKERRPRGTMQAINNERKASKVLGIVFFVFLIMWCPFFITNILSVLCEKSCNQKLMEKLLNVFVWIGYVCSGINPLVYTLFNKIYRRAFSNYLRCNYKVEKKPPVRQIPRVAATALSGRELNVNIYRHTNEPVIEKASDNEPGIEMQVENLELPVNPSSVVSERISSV

[24] = biological target: Muscarinic acetylcholine receptors; M1 & M2 (Homo sapiens) (UniProt P11229+P08172); test: Inhibition of binding towards muscarinic (M1+M2) receptor at 100 nM concentration; format: protein assay
Rattus norvegicus [25] = test: Area under curve was determined after peroral administration in rat; format: ADME, organism-based; conditions: in vivo, po
Homo sapiens = organism: Homo sapiens; test: In vitro metabolic stability of compound after 30 min incubation in the presence of human liver microsomes; format: functional

T1 sequence (P28221 whole entry): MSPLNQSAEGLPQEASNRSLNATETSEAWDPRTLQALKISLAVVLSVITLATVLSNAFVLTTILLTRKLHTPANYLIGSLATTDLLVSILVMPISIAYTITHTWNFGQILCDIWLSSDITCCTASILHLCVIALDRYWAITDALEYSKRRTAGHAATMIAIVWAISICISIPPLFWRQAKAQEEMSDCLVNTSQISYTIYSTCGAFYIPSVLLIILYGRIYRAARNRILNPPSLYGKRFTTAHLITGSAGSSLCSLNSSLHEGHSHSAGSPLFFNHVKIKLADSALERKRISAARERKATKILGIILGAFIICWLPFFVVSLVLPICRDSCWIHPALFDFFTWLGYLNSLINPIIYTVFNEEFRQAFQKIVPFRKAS
Chain of 5-hydroxytryptamine receptor 7 (Homo sapiens) (P34969 whole entry): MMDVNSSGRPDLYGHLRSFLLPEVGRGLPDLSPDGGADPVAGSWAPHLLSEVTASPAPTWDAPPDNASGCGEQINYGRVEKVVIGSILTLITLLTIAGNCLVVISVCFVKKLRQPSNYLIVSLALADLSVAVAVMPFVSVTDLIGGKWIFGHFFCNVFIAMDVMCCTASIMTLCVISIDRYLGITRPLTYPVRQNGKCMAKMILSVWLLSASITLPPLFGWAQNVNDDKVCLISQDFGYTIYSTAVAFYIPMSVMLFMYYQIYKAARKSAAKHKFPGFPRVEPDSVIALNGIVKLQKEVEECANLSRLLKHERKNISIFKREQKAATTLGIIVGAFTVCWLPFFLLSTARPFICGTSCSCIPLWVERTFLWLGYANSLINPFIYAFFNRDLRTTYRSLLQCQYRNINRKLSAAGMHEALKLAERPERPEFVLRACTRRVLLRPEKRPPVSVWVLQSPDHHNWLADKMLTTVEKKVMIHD
Chain of D(1B) dopamine receptor (Homo sapiens) (P21918 whole entry): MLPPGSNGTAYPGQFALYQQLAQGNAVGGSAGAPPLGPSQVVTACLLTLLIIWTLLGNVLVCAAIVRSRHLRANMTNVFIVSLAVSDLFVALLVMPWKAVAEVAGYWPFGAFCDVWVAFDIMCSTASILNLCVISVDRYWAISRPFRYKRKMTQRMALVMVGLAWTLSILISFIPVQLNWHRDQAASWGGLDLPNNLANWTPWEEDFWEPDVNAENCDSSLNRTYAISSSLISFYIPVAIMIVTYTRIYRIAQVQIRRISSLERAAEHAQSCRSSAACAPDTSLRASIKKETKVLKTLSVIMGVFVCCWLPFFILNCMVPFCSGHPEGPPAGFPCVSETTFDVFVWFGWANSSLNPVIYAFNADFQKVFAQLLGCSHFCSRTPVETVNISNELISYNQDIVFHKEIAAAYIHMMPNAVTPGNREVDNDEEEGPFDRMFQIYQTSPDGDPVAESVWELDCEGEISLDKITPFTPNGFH
Chain of D(2) dopamine receptor (Homo sapiens) (P14416 whole entry): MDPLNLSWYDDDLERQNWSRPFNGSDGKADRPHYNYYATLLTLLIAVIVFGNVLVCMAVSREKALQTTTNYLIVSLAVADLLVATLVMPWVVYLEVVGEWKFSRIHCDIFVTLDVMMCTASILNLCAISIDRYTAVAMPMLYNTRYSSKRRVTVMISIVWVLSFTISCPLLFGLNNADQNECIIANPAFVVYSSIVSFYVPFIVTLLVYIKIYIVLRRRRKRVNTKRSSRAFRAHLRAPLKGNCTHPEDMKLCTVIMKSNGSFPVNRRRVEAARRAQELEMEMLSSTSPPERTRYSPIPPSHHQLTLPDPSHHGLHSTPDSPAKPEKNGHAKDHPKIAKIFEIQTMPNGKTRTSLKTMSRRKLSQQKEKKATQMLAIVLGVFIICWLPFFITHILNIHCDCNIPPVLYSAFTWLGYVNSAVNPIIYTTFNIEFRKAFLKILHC
Chain of D(3) dopamine receptor (Homo sapiens) (P35462 whole entry): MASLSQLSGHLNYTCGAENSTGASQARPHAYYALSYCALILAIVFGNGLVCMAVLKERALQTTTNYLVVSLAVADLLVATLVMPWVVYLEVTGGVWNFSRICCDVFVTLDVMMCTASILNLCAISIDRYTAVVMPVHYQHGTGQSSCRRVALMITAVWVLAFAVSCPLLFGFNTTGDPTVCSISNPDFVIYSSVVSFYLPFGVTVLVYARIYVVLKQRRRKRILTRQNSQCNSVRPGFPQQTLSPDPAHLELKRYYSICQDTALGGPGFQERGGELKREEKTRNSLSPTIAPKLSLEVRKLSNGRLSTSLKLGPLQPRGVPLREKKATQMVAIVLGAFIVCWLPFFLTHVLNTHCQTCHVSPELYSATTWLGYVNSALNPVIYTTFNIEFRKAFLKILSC
Chain of D(1A) dopamine receptor (Homo sapiens) (P21728 whole entry): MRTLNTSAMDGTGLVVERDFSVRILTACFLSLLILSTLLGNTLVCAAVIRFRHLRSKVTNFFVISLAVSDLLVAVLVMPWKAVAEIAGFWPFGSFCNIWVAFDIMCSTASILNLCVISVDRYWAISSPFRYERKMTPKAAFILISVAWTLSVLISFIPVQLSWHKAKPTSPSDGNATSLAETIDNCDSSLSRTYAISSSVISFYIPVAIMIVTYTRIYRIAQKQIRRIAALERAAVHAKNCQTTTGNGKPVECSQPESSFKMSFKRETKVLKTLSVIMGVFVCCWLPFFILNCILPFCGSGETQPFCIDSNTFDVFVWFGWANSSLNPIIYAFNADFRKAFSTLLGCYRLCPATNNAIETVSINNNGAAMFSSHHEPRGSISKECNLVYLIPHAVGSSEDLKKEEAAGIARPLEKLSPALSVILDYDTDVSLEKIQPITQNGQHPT
Chain of 5-hydroxytryptamine receptor 1B (Homo sapiens) (P28222 whole entry): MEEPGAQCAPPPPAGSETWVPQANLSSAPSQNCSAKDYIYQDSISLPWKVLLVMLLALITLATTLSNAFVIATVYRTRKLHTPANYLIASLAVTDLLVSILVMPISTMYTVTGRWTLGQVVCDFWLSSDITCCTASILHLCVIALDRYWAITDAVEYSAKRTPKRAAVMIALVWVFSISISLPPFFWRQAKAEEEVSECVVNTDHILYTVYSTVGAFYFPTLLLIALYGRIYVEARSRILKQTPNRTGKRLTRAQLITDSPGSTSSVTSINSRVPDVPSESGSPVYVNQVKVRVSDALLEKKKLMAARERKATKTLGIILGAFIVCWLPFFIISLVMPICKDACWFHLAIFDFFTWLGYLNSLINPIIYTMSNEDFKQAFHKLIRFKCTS
Chain of 5-hydroxytryptamine receptor 6 (Homo sapiens) (P50406 whole entry): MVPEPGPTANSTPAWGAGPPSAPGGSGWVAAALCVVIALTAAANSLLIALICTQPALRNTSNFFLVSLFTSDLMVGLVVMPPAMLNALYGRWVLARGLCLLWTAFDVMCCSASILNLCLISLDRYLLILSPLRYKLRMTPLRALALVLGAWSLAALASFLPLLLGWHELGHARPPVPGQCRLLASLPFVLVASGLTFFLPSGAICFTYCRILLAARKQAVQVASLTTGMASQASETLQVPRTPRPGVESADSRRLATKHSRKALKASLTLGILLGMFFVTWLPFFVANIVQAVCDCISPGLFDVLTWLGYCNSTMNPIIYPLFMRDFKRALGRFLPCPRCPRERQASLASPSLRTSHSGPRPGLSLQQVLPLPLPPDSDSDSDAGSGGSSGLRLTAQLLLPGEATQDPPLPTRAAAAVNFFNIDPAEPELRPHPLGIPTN
Chain of 5-hydroxytryptamine receptor 2A (Homo sapiens) (P28223 whole entry): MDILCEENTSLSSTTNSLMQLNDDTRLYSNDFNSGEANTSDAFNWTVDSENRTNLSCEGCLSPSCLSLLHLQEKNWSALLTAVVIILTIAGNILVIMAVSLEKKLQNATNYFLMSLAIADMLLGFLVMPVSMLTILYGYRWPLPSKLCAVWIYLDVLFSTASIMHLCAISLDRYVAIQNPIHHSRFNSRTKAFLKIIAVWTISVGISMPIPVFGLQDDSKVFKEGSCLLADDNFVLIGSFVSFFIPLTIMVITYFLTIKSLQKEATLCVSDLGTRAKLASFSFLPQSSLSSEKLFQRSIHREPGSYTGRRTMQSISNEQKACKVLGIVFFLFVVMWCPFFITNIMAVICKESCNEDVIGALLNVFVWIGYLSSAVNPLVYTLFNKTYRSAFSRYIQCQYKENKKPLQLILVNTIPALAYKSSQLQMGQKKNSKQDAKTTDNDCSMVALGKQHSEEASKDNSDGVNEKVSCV

Ki [1]: 3.7 nM
SMILES: CN(C)CCn1ccc2ccc(C3CCOCC3)cc21

SMILES: CN(C)CCn1ccc2ccc(-c3ccc4ccccc4c3)cc21
Selectivity [2]: 5.5
Ki [1]: 57 nM
inhibition [3]: 79%

Selectivity [2]: 48
Ki [1]: 5.6 nM
inhibition [3]: 99%
SMILES: CN(C)CCn1ccc2ccc(C3CCSCC3)cc21

Selectivity [2]: 48
Ki [1]: 3.4 nM
SMILES: CN(C)CCn1ccc2ccc(C3(O)CCOCC3)cc21

inhibition [3]: 86%
SMILES: CN(C)CCn1ccc2ccc(-c3ccc(C(F)(F)F)cc3)cc21

SMILES: CN(C)CCn1ccc2ccc(C3(O)CCSCC3)cc21
Remaining (Rattus norvegicus [4]): 79%
Selectivity [2]: 57
inhibition [5]: 0%
inhibition [6]: 46%
Ki [1]: 2 nM
inhibition [7]: 0%
inhibition [8]: 0%
inhibition [9]: 96%
inhibition [10]: 2%
EC50 [11]: 0.3 nM
inhibition [12]: 1%
inhibition [13]: 1%
inhibition [14]: 27%
inhibition [15]: 5%
bioavailability [16]: 51.1%
Cmax [17]: 538 ng/mL
inhibition [18]: 0%
inhibition [19]: 0%
inhibition [3]: 99%
Vd [20]: 8.61 L/kg
half-life [21]: 1.5 h
clearance [22]: 74 mL/min/kg
inhibition [23]: 4%
inhibition [24]: 0%
AUC (Rattus norvegicus [25]): 21265 ng·mL/kg
Remaining (Homo sapiens): 70%

Ki [1]: 0.9 nM
SMILES: OC[C@H](NC1CCN(CCCc2c[nH]c3ccc(-n4cnnc4)cc23)CC1)c1ccc(F)cc1

inhibition [3]: 85%
SMILES: CN(C)CCn1ccc2ccc(N3CCOCC3)cc21

inhibition [3]: 88%
SMILES: CN(C)CCn1ccc2ccc(N3CCSCC3)cc21

inhibition [3]: 74%
SMILES: CN(C)CCn1ccc2ccc(C3CCN(C)CC3)cc21

inhibition [3]: 44%
SMILES: CN(C)CCn1ccc2ccc(C3(O)CCN(C)CC3)cc21

Ki [1]: 4.6 nM
SMILES: CNC(=O)c1ccc2c(c1)CCO[C@H]2CCN1CCN(c2ccc(C(N)=O)cc2)CC1

SMILES: CN(C)CCn1ccc2ccc(C3=CCN(C)CC3)cc21
inhibition [3]: 84%

Selectivity [2]: 22
Ki [1]: 7.3 nM
inhibition [3]: 99%
SMILES: CN(C)CCn1ccc2ccc(-c3ccsc3)cc21

Selectivity [2]: 7.4
Ki [1]: 22 nM
inhibition [3]: 95%
SMILES: CN(C)CCn1ccc2ccc(C3=CCSCC3)cc21

SMILES: CN(C)CCn1ccc2ccc(-c3cccnc3)cc21
Selectivity [2]: 17
Ki [1]: 1.4 nM
inhibition [3]: 98%

SMILES: CN(C)CCn1ccc2ccc(C3=CCOCC3)cc21
Selectivity [2]: 28
Ki [1]: 32 nM

— ChEMBL document CHEMBL1145755, “Design, synthesis and biological activity of novel dimethyl-[2-[6-substituted-indol-1-yl]-ethyl]-amine as potent, selective, and orally-bioavailable 5-HT(1D) agonists” (Bioorg Med Chem Lett, 2003)
